Publication PMC3491841 (EMBO Molecular Medicine, 2012)

How the values were obtained:
Type in all cases: binding
[1] = target: T1, LdTOP1L (large subunit of L. donovani topoisomerase IB) (Leishmania donovani, UniProt A0A3Q8IHS4); experiment: intrinsic tryptophan fluorescence quenching
T1 sequence (A0A3Q8IHS4 1-635): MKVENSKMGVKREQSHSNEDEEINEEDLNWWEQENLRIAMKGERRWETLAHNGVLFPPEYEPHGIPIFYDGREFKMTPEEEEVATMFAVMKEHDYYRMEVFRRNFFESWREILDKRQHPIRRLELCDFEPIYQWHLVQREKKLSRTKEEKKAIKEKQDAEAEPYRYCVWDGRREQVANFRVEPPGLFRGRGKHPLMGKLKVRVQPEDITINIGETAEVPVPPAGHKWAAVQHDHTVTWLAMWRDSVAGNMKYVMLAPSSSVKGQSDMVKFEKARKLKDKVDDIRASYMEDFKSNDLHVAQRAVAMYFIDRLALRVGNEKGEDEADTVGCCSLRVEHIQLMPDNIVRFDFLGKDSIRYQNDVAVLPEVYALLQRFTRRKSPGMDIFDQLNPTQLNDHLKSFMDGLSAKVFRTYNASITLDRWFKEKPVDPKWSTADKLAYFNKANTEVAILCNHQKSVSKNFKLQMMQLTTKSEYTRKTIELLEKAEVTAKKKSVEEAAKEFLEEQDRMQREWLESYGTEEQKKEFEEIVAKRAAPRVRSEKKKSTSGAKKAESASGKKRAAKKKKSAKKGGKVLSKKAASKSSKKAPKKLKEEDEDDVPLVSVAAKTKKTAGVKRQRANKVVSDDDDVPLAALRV

[2] = target: T2, LdTOP1S (small subunit of L. donovani topoisomerase IB) (Leishmania donovani, UniProt Q8WQM6); experiment: intrinsic tryptophan fluorescence quenching
T2 sequence (Q8WQM6 1-262): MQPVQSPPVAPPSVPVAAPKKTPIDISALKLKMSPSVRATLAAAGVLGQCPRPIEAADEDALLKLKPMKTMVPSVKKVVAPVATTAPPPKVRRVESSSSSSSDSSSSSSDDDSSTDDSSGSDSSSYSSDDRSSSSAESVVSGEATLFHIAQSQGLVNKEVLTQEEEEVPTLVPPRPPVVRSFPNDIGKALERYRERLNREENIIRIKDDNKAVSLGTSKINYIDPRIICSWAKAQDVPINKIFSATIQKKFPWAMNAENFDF

[3] = target: T3, LdTOP1LS (reconstituted heterodimeric topoisomerase IB) (Leishmania donovani, UniProt A0A3Q8IHS4+Q8WQM6); experiment: tryptophan fluorescence quenching
T3 sequence (A0A3Q8IHS4 1-635): T1 sequence (A0A3Q8IHS4 1-635)
T3 sequence (Q8WQM6 1-262): T2 sequence (Q8WQM6 1-262)

Kd [1]: 372 ± 260 nM
Kd [2]: 169 ± 120 nM
Kd [3]: 299 ± 160 nM
SMILES: COC[C@@H](Cc1ccc(OC)c(OC)c1)[C@@H](COC)Cc1cc(OC)c2c(c1)OCO2 [niranthin]
